Counter-ions that a name gives are not always drawn.
Experiments:
[1] = tested on: Human lens epithelial cells; experiment: TBHP-induced cell death in lens epithelial cells; type: cell-based; conditions: lens epithelial cells (FIG. 19); 0.9 μM 24 h, then 300 μM TBHP 24 h
Description: Immortalized human lens epithelial cells (CRL-11421) obtained from the American Type Culture Collection (ATCC, Manassas, VA, USA) were cultured in Eagle's minimum essential media (EMEM, ATCC) containing 10% fetal bovine serum (FBS), 100 IU/mL penicillin, 100 μg/mL streptomycin, 100 μg/mL gentamicin, and 2.5 μg/mL amphotericin B (Thermo Fisher Scientific). Human ARPE-19 cells were plated in 96-well plates for 24 hours in DMEM supplemented with FBS and antibiotics. ARPE-19 cells were preincubated with either ciclopirox olamine (Sigma), compound 414 (Chemical Diversity, San Diego, CA), compound 434 (Chemical Diversity) or no compound for 24 hours and then exposed to varying concentrations of tert-butyl hydroperoxide (TBHP; Sigma-Aldrich, St. Louis, MO) the next day for 24 hours. Cell viability was measured the following day by […] cell viability assay (Promega, Madison, WI) using a BioTek FLX800TM fluorescence reader (BioTek Winooski, VT). […] Protective effect of 0.9 μMciclopirox olamine on lens epithelial cells exposed to 300 μMTBHP.

Human ARPE-19 cells [2] = experiment: Light microscopy of cell morphology after TBHP challenge; type: cell-based
Description: FIG. 1B depicts cells alone (control). FIG. 1C depicts cells treated with 300 μM TBHP. FIG. 1D depicts cells treated with 0.9 μM of ciclopirox olamine.
FIG. 8B depicts cells alone (control). FIG. 8C depicts cells treated with 300 μM TBHP. FIG. 8D depicts cells treated with 0.6 μM compound 414.
Human ARPE-19 cells morphology was examined using phase contrast on a Zeiss 510 NLO confocal laser scanning microscope with a Plan-Apochromatic 20×0.8 DIC objective.

C6 cells = experiment: TBHP-induced cell death in C6 cells; type: cell-based; conditions: 0.9 μM 24 h preincubation, 400 μM TBHP 24 h
Description: (§1) FIG. 17 is a graph illustrating that Compound 414 and 434 protect various cell types from oxidative stress-induced cell death. Human ARPE-19, HUVEC, and C6 cells were preincubated with compound 414 and 434 for 24 hours, and then exposed to 400 μM tert-butyl hydroperoxide (TBHP) to induce cell death for 24 hours.
(§2) Human ARPE-19, HUVEC, and C6 cells were preincubated with compound 414 and 434 for 24 hours, and then exposed to 400 μM tert-butyl hydroperoxide (TBHP) to induce cell death for 24 hours.

[3] = tested on: 661 W photoreceptor-derived cells; experiment: TBHP-induced oxidative stress in 661 W photoreceptor-derived cells; type: cell-based, Murine; conditions: 24 h preincubation, then 300 μM TBHP 24 h, n=4
Description: As shown in FIGS. 20A-20B, compounds 414 and 434 protect 661 W photoreceptor-derived cells from tert-butyl […] oxidative stress. Retinal photoreceptor-derived cell line (661 W) were cultured until confluent in Dulbecco's modified eagle medium (DMEM) with 10% fetal bovine serum (FBS). Murine photoreceptor-derived cells were preincubated with 3 μMciclopirox olamine for 24 hours and then exposed to 300 μM tert-butyl hydroperoxide (TBHP) to induce cell death for 24 hours. […] Bar: standard error, n=4. student t-test was performed for statistical analysis.

Human ARPE-19 cells [4] = experiment: Cell viability on nitrite-modified extracellular matrix; type: cell-based; conditions: 0.9 μM, 24 h
Description: To prepare the RPE ECM nitrite-treated plates, ARPE-19 cells were grown on 24-well Transwell permeable supports (Corning, Tewksbury, MA, USA) in 12-well plates for 6 to 8 weeks to allow for ECM formation. ARPE-19 cells were removed by the addition of 20 mM ammonium hydroxide buffer for 20 minutes, and the ECM was washed three times with phosphate-buffered saline (PBS). Phosphate-buffered saline was removed from the RPE-derived ECM (RPE-ECM), which was then allowed to dry. The RPE-derived ECM plates were either used immediately after drying, or stored at −20° C. for future use. RPE-derived ECM was processed further to create four experimental plating surfaces (untreated, nitrite modified, nitrite modified followed by washing, or nitrite modified followed by washing and coating with a mixture of ECM ligands).
Nitrite-modified ECM was prepared by adding 100 mM sodium nitrite to the ECM and incubating at 37° C. for 7 days. Plates were then washed at least four times with PBS and further incubated with PBS for 4 hours. Following this, the plates were washed at least two additional times to completely remove the nitrite.
Reactive nitrogen species (RNS) act together with reactive oxygen species (ROS) to damage cells, causing nitrosative stress. […]

Human ARPE-19 cells [5] = experiment: CellTox Green cytotoxicity assay; type: cell-based; conditions: 0.9 μM 24 h
Description: FIG. 14 is a graph illustrating cytotoxicity level of the compounds in human retinal pigment epithelial (RPE) cells. Human ARPE-19 cells were preincubated with 0.9 μM of compound 414 or 434 for 24 hours and then exposed to 300 μM tert-butyl hydroperoxide (TBHP) for 24 hours. Cell toxicity was measured in human ARPE-19 cells after treatment with TBHP and compounds 414 and 434.
Human ARPE-19 or primary RPE were plated in 96-well plates for 24 hours in DMEM supplemented with FBS and antibiotics. ARPE-19 cells were incubated with compound (Chemical Diversity) or exposed to tert-butyl hydroperoxide (Sigma-Aldrich, St. Louis, MO) for 24 hours. Cell cytotoxicity was measured the following day by CellTox™ Green cytotoxicity assay (Promega, Madison, WI) using a BioTek FLx800™ fluorescence reader (BioTek, Winooski, VT).
After exposure to TBHP for 24 hours and treatment with compound 414 or 434 cytotoxicity levels were measured in human ARPE-19 cells (FIG. 14).

HUVEC = experiment: TBHP-induced cell death in HUVEC; type: cell-based, human; conditions: 0.9 μM 24 h preincubation, 400 μM TBHP 24 h
Description: as §1, §2

Q: Cc1cc(C2CCCCC2)n(O)c(=O)c1 [ciclopirox olamine, 6-cyclohexyl-1-hydroxy-4-methyl-2(1H)-pyridone, ethanolamine salt, reference compound] was tested. Which “cell viability after exposure to TBHP” value [1] did it give?
A: Its value is “significantly increases cell viability”.

Q: And the “cell morphology after challenge with TBHP” value (Human ARPE-19 cells [2]; 0.9 μM ciclopirox olamine and 300 μM TBHP)?
A: Its value is “helps to preserve a normal morphology”.

Q: How did the “protection from oxidative stress-induced cell death” value (“protection” for short) (C6 cells) turn out when CCc1cccc(C)c1Nc1c(-c2cc(Br)ccc2O)nc2ncccn12 [compound 414] was run?
A: Its value is “Protective effects”.

Q: What about the “cell viability after exposure to TBHP” value [3] of the same compound?
A: The value was “significantly increased cell viability”.

Q: What about the “cell viability on nitrite-modified ECM” value (Human ARPE-19 cells [4]) of the same compound?
A: Its value is “enhances cell viability”.

Q: And the “cell morphology after challenge with TBHP” value (Human ARPE-19 cells [2]; 0.6 μM compound and 300 μM TBHP)?
A: The value was “helps to preserve a normal morphology”.

Q: What about the “cytotoxicity, treatment with compound alone” value (Human ARPE-19 cells [5]) of the same compound?
A: The value was “reduce cytotoxicity”.

Q: And the “protection” value (HUVEC)?
A: The value was “Protective effects”.

Q: CCc1cccc(C)c1Nc1c(-c2cc(Br)ccc2O)nc2nc(C)cc(C)n12 [compound 434] was tested. Which “protection” value (C6 cells) did it give?
A: Its value is “Protective effects”.

Q: And the “cell viability after exposure to TBHP” value [3]?
A: Its value is “significantly increased cell viability”.

Q: And the “cell viability on nitrite-modified ECM” value (Human ARPE-19 cells [4])?
A: Its value is “enhances cell viability”.

Q: What about the “cytotoxicity, treatment with compound alone” value (Human ARPE-19 cells [5]) of the same compound?
A: The value was “reduce cytotoxicity”.

Q: What about the “protection” value (HUVEC) of the same compound?
A: Its value is “Protective effects”.

Reference: patent US12310970B2, “Compounds and methods for treating or preventing anterior segment ocular disorders and/or retinal degenerations” (YALE UNIVERSITY, priority 2018, dated 2025)
